In ChEMBL document CHEMBL1201862, “PubChem BioAssay data set” (2004):
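Each compound was tested at five concentrations against cells in 96-well plates for 48 hours. GI50 is the concentration that inhibits growth by half.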 Active and inactive are the calls of the source. No stated cut-off is given here; in the data, active = GI50 up to about 1.1 µM and inactive = higher. Starred links: 1 amine or outer side, 2 acyl side, 3 side chain; linkers in the order of their positions; H or OH if unused. Non-standard residues stand in square brackets, D forms with d. Residues, ends and D or L forms follow the SMILES beside them. X41 = CSCCCC(N[*:1])C(=O)[*:2]

Tests used:
Experiment in all cases: inhibition of tumour cell growth, NCI panel, 48 h
K562 = system: K562
NCI/ADR-RES = system: NCI/ADR-RES
COLO 205 = system: COLO 205
EKVX = system: EKVX
ACHN = system: ACHN
KM12 = system: KM12
SK-MEL-5 = system: SK-MEL-5
TK-10 = system: TK-10
786-0 = system: 786-0
A549 = system: A549
SN12C = system: SN12C
MDA-N = system: MDA-N
SR = system: SR
UO-31 = system: UO-31
OVCAR-4 = system: OVCAR-4
PC-3 = system: PC-3
SK-MEL-28 = system: SK-MEL-28
IGROV-1 = system: IGROV-1
NCI-H226 = system: NCI-H226
SNB-75 = system: SNB-75

Structure (SMILES) | GI50 (K562) | GI50 (NCI/ADR-RES) | GI50 (COLO 205) | GI50 (EKVX) | GI50 (ACHN) | GI50 (KM12) | GI50 (SK-MEL-5) | GI50 (TK-10) | GI50 (786-0) | GI50 (A549) | GI50 (SN12C) | GI50 (MDA-N) | GI50 (SR) | GI50 (UO-31) | GI50 (OVCAR-4) | GI50 (PC-3) | GI50 (SK-MEL-28) | GI50 (IGROV-1) | GI50 (NCI-H226) | GI50 (SNB-75)
COC1C(=O)N(SC)C1c1ccccc1Cl (stereo unspecified) | 25.9 µM (inactive) | 68.1 µM (inactive) | 51.8 µM (inactive) | 24.4 µM (inactive) | 18.8 µM (inactive) | > 100 µM (inactive) | 95.5 µM (inactive) | > 100 µM (inactive) | 18.7 µM (inactive) | > 100 µM (inactive) | 22.8 µM (inactive) | 34.6 µM (inactive) | 18.6 µM (inactive) | 17.5 µM (inactive) | 16.7 µM (inactive) | 86.7 µM (inactive) | > 100 µM (inactive) | 18.7 µM (inactive) | – | –
CC(C)(C)Cc1cc(O)ccc1O | 48.3 µM (inactive) | 35.6 µM (inactive) | > 100 µM (inactive) | 48.9 µM (inactive) | 86.1 µM (inactive) | 64.9 µM (inactive) | – | > 100 µM (inactive) | 63.5 µM (inactive) | 58.9 µM (inactive) | 51.3 µM (inactive) | 43.2 µM (inactive) | 24 µM (inactive) | > 100 µM (inactive) | > 100 µM (inactive) | > 100 µM (inactive) | > 100 µM (inactive) | > 100 µM (inactive) | > 100 µM (inactive) | 58.9 µM (inactive)
Cc1sc2nc(-c3ccc(Cl)c([N+](=O)[O-])c3)c(/C=N/NC(=N)N)n2c1C | 2.39 µM (inactive) | 2.04 µM (inactive) | 0.282 µM (active) | 1.69 µM (inactive) | 1.46 µM (inactive) | 0.45 µM (active) | 1.53 µM (inactive) | 1.75 µM (inactive) | 0.684 µM (active) | 1.62 µM (inactive) | 1.31 µM (inactive) | 0.893 µM (active) | 0.229 µM (active) | 1.65 µM (inactive) | – | 1.52 µM (inactive) | 0.973 µM (active) | 1.09 µM (active) | 1.61 µM (inactive) | –
CSCCCC(NC(=O)CNC(=O)C1CCCN1C(=O)C(Cc1ccc(O)cc1)NC(=O)C(Cc1ccccc1)NC(=O)C(CCCNC(=N)N)NC(=O)C(CC(=O)O)NC(=O)C1CCCN1C(=O)C(CC(=O)O)NC(=O)C1CCCN1C(=O)C1CCCN1C(=O)CN)C(N)=O (stereo unspecified) (H-GPPDPDRFYPG[X41]-NH2; configuration not given here) | > 50 µM (inactive) | > 50 µM (inactive) | > 50 µM (inactive) | > 50 µM (inactive) | > 50 µM (inactive) | > 50 µM (inactive) | > 50 µM (inactive) | > 50 µM (inactive) | > 50 µM (inactive) | > 50 µM (inactive) | > 50 µM (inactive) | > 50 µM (inactive) | > 50 µM (inactive) | > 50 µM (inactive) | > 50 µM (inactive) | > 50 µM (inactive) | > 50 µM (inactive) | > 50 µM (inactive) | > 50 µM (inactive) | –
Clc1ccc(/C=C/c2nc(-c3ccccc3)cn3c2nc2ccccc23)cc1Cl | 43.6 µM (inactive) | 55.6 µM (inactive) | > 100 µM (inactive) | 40.3 µM (inactive) | 49.5 µM (inactive) | 31.4 µM (inactive) | 50.2 µM (inactive) | 56.6 µM (inactive) | 37.5 µM (inactive) | 59.6 µM (inactive) | 38.1 µM (inactive) | 60 µM (inactive) | 33.7 µM (inactive) | 58.1 µM (inactive) | 40.9 µM (inactive) | 62.4 µM (inactive) | 65.8 µM (inactive) | 36.1 µM (inactive) | > 100 µM (inactive) | –
COc1ccc(/C=C2\CN(C)C/C(=C\c3ccc(OC)c(OC)c3OC)C2=O)c(OC)c1OC | 0.0192 µM (active) | 0.145 µM (active) | 0.238 µM (active) | 1.67 µM (inactive) | 0.218 µM (active) | 0.0859 µM (active) | 0.259 µM (active) | 1.01 µM (active) | 0.0887 µM (active) | 0.294 µM (active) | 0.101 µM (active) | 0.0968 µM (active) | 0.0658 µM (active) | – | 0.253 µM (active) | 0.231 µM (active) | 0.147 µM (active) | 0.311 µM (active) | 0.394 µM (active) | 0.973 µM (active)
COc1cc(Nc2ccc3c(c2)CCC3)nc(OC)n1 | – | 23.1 µM (inactive) | 37.3 µM (inactive) | 17.1 µM (inactive) | 28.2 µM (inactive) | 27.9 µM (inactive) | 23.9 µM (inactive) | 28.2 µM (inactive) | 37.2 µM (inactive) | 26.5 µM (inactive) | 30.2 µM (inactive) | 26.1 µM (inactive) | 20.5 µM (inactive) | – | 33.3 µM (inactive) | 27.1 µM (inactive) | > 100 µM (inactive) | 31.4 µM (inactive) | 32.5 µM (inactive) | 18.9 µM (inactive)
NS(=O)(=O)c1ccc(/N=N/c2ccc(O)c(C(=O)O)c2)cc1 [SALAZOSULFAMIDE] | > 100 µM (inactive) | > 100 µM (inactive) | > 100 µM (inactive) | > 100 µM (inactive) | > 100 µM (inactive) | > 100 µM (inactive) | > 100 µM (inactive) | > 100 µM (inactive) | > 100 µM (inactive) | > 100 µM (inactive) | > 100 µM (inactive) | > 100 µM (inactive) | – | > 100 µM (inactive) | > 100 µM (inactive) | > 100 µM (inactive) | > 100 µM (inactive) | > 100 µM (inactive) | > 100 µM (inactive) | 69 µM (inactive)
Cc1oc2c(cc(O)c3ccccc32)c2cccc1-2 | – | > 100 µM (inactive) | > 100 µM (inactive) | > 100 µM (inactive) | > 100 µM (inactive) | > 100 µM (inactive) | > 100 µM (inactive) | > 100 µM (inactive) | > 100 µM (inactive) | > 100 µM (inactive) | > 100 µM (inactive) | > 100 µM (inactive) | > 100 µM (inactive) | – | – | > 100 µM (inactive) | > 100 µM (inactive) | – | – | > 100 µM (inactive)
COc1cc(/C=C/C=C2\CCC/C(=C\C=C\c3ccc(O)c(OC)c3)C2=O)ccc1O | 3.06 µM (inactive) | 12.2 µM (inactive) | 18.6 µM (inactive) | 7.36 µM (inactive) | 4.08 µM (inactive) | 24.7 µM (inactive) | 10.3 µM (inactive) | 8.34 µM (inactive) | 10 µM (inactive) | 4.85 µM (inactive) | 17.3 µM (inactive) | 3.91 µM (inactive) | 1.69 µM (inactive) | 12 µM (inactive) | 6.27 µM (inactive) | 6.58 µM (inactive) | 12.6 µM (inactive) | 6.7 µM (inactive) | – | 26.7 µM (inactive)
CC(=O)OC1CC[C@]2(C)C3CC[C@@]4(C)C(CCC4[C@H](C)CCCC(C)C)[C@@H]3CCC2(Br)C1 (stereo partly specified) | 15.5 µM (inactive) | 41 µM (inactive) | 9.62 µM (inactive) | > 50 µM (inactive) | 9.91 µM (inactive) | 21.4 µM (inactive) | – | 12.8 µM (inactive) | 8.49 µM (inactive) | 19.8 µM (inactive) | 22.5 µM (inactive) | 20.1 µM (inactive) | 9.44 µM (inactive) | 14 µM (inactive) | 11.7 µM (inactive) | 10.9 µM (inactive) | 7.91 µM (inactive) | 11.9 µM (inactive) | > 50 µM (inactive) | > 50 µM (inactive)
COc1ccc(C(=O)C(CC2C(=O)CC(C)(C)C(C(=O)C(=O)Nc3c(C)cccc3C)C2=O)c2ccc(OC)cc2)cc1 (stereo unspecified) | – | > 100 µM (inactive) | > 100 µM (inactive) | > 100 µM (inactive) | > 100 µM (inactive) | > 100 µM (inactive) | > 100 µM (inactive) | > 100 µM (inactive) | > 100 µM (inactive) | > 100 µM (inactive) | > 100 µM (inactive) | > 100 µM (inactive) | 22.9 µM (inactive) | 70.1 µM (inactive) | > 100 µM (inactive) | > 100 µM (inactive) | > 100 µM (inactive) | > 100 µM (inactive) | > 100 µM (inactive) | > 100 µM (inactive)
COC(=O)/C=C1/N=C(N(C)/N=C/c2ccccc2)NC1=O | > 100 µM (inactive) | > 100 µM (inactive) | > 100 µM (inactive) | > 100 µM (inactive) | – | > 100 µM (inactive) | > 100 µM (inactive) | > 100 µM (inactive) | > 100 µM (inactive) | > 100 µM (inactive) | > 100 µM (inactive) | > 100 µM (inactive) | > 100 µM (inactive) | > 100 µM (inactive) | > 100 µM (inactive) | > 100 µM (inactive) | > 100 µM (inactive) | > 100 µM (inactive) | – | > 100 µM (inactive)
Cc1oc2nc1C(=O)NCc1nc(cs1)C(=O)N[C@H](C(C)C)c1nc(cs1)C(=O)N[C@H]2C | 54.8 µM (inactive) | 30.1 µM (inactive) | 75.7 µM (inactive) | > 100 µM (inactive) | > 100 µM (inactive) | 61.4 µM (inactive) | 23.1 µM (inactive) | – | 57.4 µM (inactive) | 47.2 µM (inactive) | 58.5 µM (inactive) | > 100 µM (inactive) | – | 37.2 µM (inactive) | > 100 µM (inactive) | 40.3 µM (inactive) | > 100 µM (inactive) | 29.9 µM (inactive) | 42.9 µM (inactive) | 95.7 µM (inactive)
CC1=CCS(=O)(=O)C1C(O)C1=C(C)CCCC1(C)C (stereo unspecified) | 43.1 µM (inactive) | 78.7 µM (inactive) | 60.1 µM (inactive) | > 100 µM (inactive) | > 100 µM (inactive) | 59.7 µM (inactive) | 44.4 µM (inactive) | > 100 µM (inactive) | > 100 µM (inactive) | 68.5 µM (inactive) | > 100 µM (inactive) | 63.1 µM (inactive) | – | 38.3 µM (inactive) | 84.5 µM (inactive) | 55.5 µM (inactive) | > 100 µM (inactive) | > 100 µM (inactive) | > 100 µM (inactive) | 98.4 µM (inactive)
